Assay results taken from patent US4871109A (priority 1988, dated 1989).

Columns and labels:
in vivo = conditions: rat
rats = conditions: rat, in vivo

With `FC(F)(F)OC(F)(F)C(F)(F)OC(F)(F)C(F)(F)OC(F)(F)C(F)(F)OC(F)(F)C(F)(F)OC(F)(F)C(F)(F)OC(F)(F)C(F)(F)OC(F)(F)C(F)(F)OC(F)(F)F` [PFHG, 1,1,1,3,3,4,4,6,6,7,7,9,9,10,10,12,12,13,13,15,15,16,16,18, 18,19,19,21,21,22,22,24,24,24-tetratriacontafluoro-2,5,8,11, 14,17,20,23-octaoxatetetracosane] as the molecule, how does the LD50 (in vivo) read?
The LD50 was over 10000 mg/kg.

What about the “toxicity (in words)” value (rats) of the same molecule?
The value was “essentially nontoxic”.
